Reference: patent publication US11415493B2, “Detection of cells in a liquid sample” (DELTA INSTRUMENTS B.V., priority 2016, dated 2022)
Entries after “also recorded” stand apart in the source; their conditions may differ.

Tested on: E. coli
Assay: Staining E. coli culture with different nucleic acid dyes, flow cytometer counts (FL1FL2 region)
Type: cell-based, Escherichia coli
Protocol: First, an experiment was performed to confirm that bacterial counts obtained on the flow cytometer using GelGreen™ did correlate with traditional plate counts. For this, the Petrifilm method was selected (Standard Methods for Examination of Dairy Products 17th Edition 2004. Edited by H. M. Wehr and J. R. Frank. American Public Health Association, 800 I Street, NW, Washington D.C. 200001. Chapter 6.040), rather than a poured agar plate method, because of ease of use. Escherichia coil (E. coli) cultures were grown at 36° C. in Trypticase Soy Broth (TSB) in a culture tube. A staining composition was prepared as follows: The nucleic acid dye GelGreen™ (from Biotium) was diluted to 1× from the 10,000× commercially available stock, into Tris-buffered saline (100 mM Trizma base, 100 mM Trizma HCl, 150 mM NaCl, pH 8.5), which was preheated to 50° C. The used dilution of 1:10,000 of the GelGreen™ is in accordance with the manufacturer's recommendation for using GelGreen™ for the purpose it was intended for, namely staining DNA in an agarose gel. This is the dilution of GelGreen™ used in all the examples herein. The E. coli culture was removed from the 36° C. incubator and a small volume was diluted 1:100 into the preheated staining composition and incubated for approximately 4.5 min at 50° C. The stained E. coli was analyzed on the flow cytometer and the FL1 (Bandpass 531 nm (519-551)) and FL2 (Long pass >550 nm) fluorescence channels were used to identify the stained bacteria (FIGS. 1A and 1C). A rectangular region was defined around the positively stained cells identified as live cells in the FL1 versus FL2 2-dimensional correlation plot (FIG. 1B). A count per mL of the E. coli was obtained from the flow cytometry analysis. The E. coli culture was then diluted in TSB to obtain 3 different concentrations (1:10, 1:100 and 1:1000, respectively). The E. coli cultures were kept at 4° C. to minimize further growth until analysis. Each dilution of E. coli was stained with the GelGreen™ reagent, analyzed on the flow cytometer and counts for each dilution were obtained. Each E. coli culture was also appropriately diluted in Butterfield's PBS and 1 mL of the appropriately diluted culture was plated on Petrifilms in duplicate. The Petrifilms were placed in a 30° C. incubator, removed after 48 hrs and the colonies on each Petrifilm were counted using an automated colony counter. An average CFU/mL for each E. coli dilution was obtained. The Log of the flow cytometer bacterial counts using GelGreen™ was plotted versus the Log CFU counts from the Petrifilm (FIG. 2).
To show where the bacteria in the FL1 and FL2 signal plots can be expected, bacteria were first counted in the staining composition without adding any milk. A culture of E. coli were grown at 36° C. in Trypticase Soy Broth (TSB) in a culture tube. The nucleic acid dye GelGreen™ was diluted into Tris-buffered saline, at approximately pH 8.5, which was preheated to 50° C. The E. coli culture was removed from the 36° C. incubator and a small volume was diluted 1:100 into the preheated staining composition and incubated for approximately 4.5 min at 50° C. The stained E. coli was analyzed on the flow cytometer and the FL1 and FL2 fluorescence channels were used to identify the stained bacteria (FIG. 3A).
A culture of E. coli was grown at 36° C. in Trypticase Soy Broth (TSB), stained with GelGreen™ and counted on the flow cytometer (FIG. 5) as described in example 2. The E. coli culture was then kept at 4° C. until stained with other nucleic acid dyes. The nucleic acid dyes TOTO®-1 and SYBR® Safe (both from Thermo Fisher Scientific) were selected as alternatives. […] Both dyes have similar spectral properties to GelGreen™ and were diluted in Tris-buffered saline using the same dilution factor as GelGreen™. […]

CN(C)c1ccc2cc3ccc(N(C)C)cc3[n+](CCCCCC(=O)NCCCOCCOCCOCCCNC(=O)CCCCC[n+]3c4cc(N(C)C)ccc4cc4ccc(N(C)C)cc43)c2c1.[I-].[I-] [GelGreen™]
staining of E. coli (NaCl solution (saline), 50° C.): minimal staining
staining of E. coli (NaCl solution (saline), room temperature (23° C.)): does not stain E. coli; also recorded: did not stain bacterial cells
staining of E. coli (Tris-buffered saline pH 8.5, 50° C., approximately 4.5 min): stains essentially all bacterial cells
staining of E. coli (Tris-buffered saline pH 8.5, room temperature (23° C.)): does not stain E. coli; also recorded: did not stain bacterial cells
